Earlier results on twelve substances are cited in patent publication US12257323B2, “Modified wound dressings” (CONVATEC TECHNOLOGIES INC., priority 2016, dated 2025).

Among the targets are MMP-9 (Homo sapiens, UniProt P14780); MMP-8 (Homo sapiens, UniProt P22894); MMP-3 (Homo sapiens, UniProt P08254).
What all share (conditions): cited from earlier work
In another series the target is T1, MMP-2 (Homo sapiens, UniProt P08253).
T1 sequence (P08253 110-660): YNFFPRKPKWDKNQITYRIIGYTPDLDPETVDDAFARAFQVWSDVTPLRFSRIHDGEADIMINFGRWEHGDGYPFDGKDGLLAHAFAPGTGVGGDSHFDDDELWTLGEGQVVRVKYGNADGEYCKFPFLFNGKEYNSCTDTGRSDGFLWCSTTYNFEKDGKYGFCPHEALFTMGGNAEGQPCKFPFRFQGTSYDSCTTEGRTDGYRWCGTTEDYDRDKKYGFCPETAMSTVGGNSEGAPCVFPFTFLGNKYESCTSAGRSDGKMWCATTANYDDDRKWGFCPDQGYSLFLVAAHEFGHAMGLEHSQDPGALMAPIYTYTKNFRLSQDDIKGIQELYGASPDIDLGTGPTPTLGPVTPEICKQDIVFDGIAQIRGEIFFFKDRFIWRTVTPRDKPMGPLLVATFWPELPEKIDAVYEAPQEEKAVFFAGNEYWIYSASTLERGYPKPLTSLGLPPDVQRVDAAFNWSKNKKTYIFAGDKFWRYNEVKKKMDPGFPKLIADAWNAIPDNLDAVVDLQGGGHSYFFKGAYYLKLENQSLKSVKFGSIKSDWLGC

The target in another series is T2, MMP-1 (Homo sapiens, UniProt P03956).
T2 sequence (P03956 100-469): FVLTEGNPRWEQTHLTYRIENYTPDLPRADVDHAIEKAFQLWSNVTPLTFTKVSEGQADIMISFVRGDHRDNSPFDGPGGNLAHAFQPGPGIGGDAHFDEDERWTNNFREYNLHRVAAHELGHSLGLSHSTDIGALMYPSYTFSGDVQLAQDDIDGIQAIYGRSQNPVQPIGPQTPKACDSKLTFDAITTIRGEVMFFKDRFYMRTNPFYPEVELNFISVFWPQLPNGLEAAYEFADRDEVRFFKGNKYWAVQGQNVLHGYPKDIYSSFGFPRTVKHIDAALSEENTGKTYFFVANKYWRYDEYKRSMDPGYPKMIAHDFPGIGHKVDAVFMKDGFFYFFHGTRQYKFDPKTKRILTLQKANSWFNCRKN

The target in a further series is T3, MMP-7 (Homo sapiens, UniProt P09237).
T3 sequence (P09237 95-267): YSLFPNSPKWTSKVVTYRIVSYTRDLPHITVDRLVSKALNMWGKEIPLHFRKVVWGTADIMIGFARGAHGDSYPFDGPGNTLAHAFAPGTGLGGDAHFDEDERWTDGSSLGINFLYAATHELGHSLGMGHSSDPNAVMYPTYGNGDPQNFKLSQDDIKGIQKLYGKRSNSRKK

Sequence of MMP-9 (P14780 94-707): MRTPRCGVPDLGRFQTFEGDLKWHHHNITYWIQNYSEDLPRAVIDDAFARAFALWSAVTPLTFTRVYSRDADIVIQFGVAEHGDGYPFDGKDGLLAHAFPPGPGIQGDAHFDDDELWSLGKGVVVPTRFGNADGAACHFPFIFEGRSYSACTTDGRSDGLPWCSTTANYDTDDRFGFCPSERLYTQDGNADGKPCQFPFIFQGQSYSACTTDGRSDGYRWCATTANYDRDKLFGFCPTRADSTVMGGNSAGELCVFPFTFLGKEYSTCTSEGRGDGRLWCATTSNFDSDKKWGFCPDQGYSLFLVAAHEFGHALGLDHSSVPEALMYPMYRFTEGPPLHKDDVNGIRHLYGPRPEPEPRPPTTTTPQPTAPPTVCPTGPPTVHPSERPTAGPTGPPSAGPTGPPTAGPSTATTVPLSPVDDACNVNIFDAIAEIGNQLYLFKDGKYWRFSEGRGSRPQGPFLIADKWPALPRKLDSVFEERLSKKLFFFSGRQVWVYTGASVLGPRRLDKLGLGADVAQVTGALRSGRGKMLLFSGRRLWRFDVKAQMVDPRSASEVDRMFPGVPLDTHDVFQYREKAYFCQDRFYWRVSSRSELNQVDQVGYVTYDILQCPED
Sequence of MMP-8 (P22894 101-467): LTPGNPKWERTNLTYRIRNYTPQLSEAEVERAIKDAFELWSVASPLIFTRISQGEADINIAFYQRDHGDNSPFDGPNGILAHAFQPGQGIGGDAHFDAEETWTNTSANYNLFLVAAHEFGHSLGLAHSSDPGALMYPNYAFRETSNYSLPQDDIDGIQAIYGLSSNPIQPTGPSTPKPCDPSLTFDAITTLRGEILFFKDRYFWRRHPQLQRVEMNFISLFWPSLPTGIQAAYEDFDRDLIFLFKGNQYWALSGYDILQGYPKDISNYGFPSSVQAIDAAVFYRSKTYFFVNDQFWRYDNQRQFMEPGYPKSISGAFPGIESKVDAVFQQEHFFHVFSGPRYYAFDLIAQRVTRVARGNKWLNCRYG
Sequence of MMP-3 (P08254 100-477): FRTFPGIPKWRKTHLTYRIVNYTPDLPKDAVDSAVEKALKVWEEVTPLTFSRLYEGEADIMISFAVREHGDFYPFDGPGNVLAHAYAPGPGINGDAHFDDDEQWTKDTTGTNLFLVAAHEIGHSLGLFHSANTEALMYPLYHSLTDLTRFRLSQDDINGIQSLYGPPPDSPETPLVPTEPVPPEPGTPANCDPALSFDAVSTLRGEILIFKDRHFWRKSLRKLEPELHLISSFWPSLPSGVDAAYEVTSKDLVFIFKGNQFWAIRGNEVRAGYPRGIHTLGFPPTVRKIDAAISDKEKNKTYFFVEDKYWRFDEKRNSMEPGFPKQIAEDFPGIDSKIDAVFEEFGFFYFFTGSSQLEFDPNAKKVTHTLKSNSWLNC

As for Gly-Pro-Gln-Gly#Ile-Phe-Gly-Gln, at MMP-9, the “Relative rate MMP-9” value is on record as 390. The “Relative rate MMP-2” value at MMP-2 is 380. Besides, the “Relative rate MMP-8” value at MMP-8 is recorded as 510. Also, the “Relative rate MMP-1” value on MMP-1 is 369. The “Relative rate MMP-7” value at MMP-7 is listed as 140. Also, the “Relative rate MMP-3” value on MMP-3 is reported as 130.
In the case of Gly-Pro-Gln-Gly#Ile-Trp-Gly-Gln, at MMP-9, the “Relative rate MMP-9” value is recorded as 140. At MMP-2, the “Relative rate MMP-2” value is on record as 310. Also, the “Relative rate MMP-8” value at MMP-8 is reported as 930. Further, the “Relative rate MMP-1” value at MMP-1 is 840. Further, the “Relative rate MMP-7” value at MMP-7 is recorded as 330. Besides, the “Relative rate MMP-3” value on MMP-3 is recorded as 280.
On to Gly-Pro-Gln-Gly#Leu-Ala-Gly-Gln, for which the “Relative rate MMP-9” value on MMP-9 is 80. Further, the “Relative rate MMP-2” value on MMP-2 is reported as 88. For the same substance, at MMP-8, the “Relative rate MMP-8” value was 180. For the same substance, the “Relative rate MMP-1” value at MMP-1 was 130. Moreover, the “Relative rate MMP-7” value at MMP-7 is on record as 300. In addition, the “Relative rate MMP-3” value on MMP-3 is reported as 110.
Take Gly-Pro-Gln-Gly#Phe-Ala-Gly-Gln: on MMP-9, the “Relative rate MMP-9” value is recorded as 24. Further, on MMP-2, the “Relative rate MMP-2” value is 55. Besides, the “Relative rate MMP-8” value at MMP-8 is on record as 46. Moreover, on MMP-1, the “Relative rate MMP-1” value is recorded as 20. Also, at MMP-7, the “Relative rate MMP-7” value is reported as 74. Besides, at MMP-3, the “Relative rate MMP-3” value is recorded as 140.
For the substance Gly-Pro-Gln-Gly#Pro-Ala-Gly-Gln, the “Relative rate MMP-9” value on MMP-9 is recorded as below 5.0. For the same substance, the “Relative rate MMP-2” value at MMP-2 is below 5.0. In addition, the “Relative rate MMP-8” value at MMP-8 is below 0.5. In addition, the “Relative rate MMP-1” value on MMP-1 is below 0.5. For the same substance, the “Relative rate MMP-7” value on MMP-7 is listed as below 5.0. The “Relative rate MMP-3” value on MMP-3 is listed as below 0.5.
On to Gly-Pro-Gln-Gly#Ser-Ala-Gly-Gln, for which the “Relative rate MMP-9” value on MMP-9 is given as below 5.0. Also, the “Relative rate MMP-2” value at MMP-2 was 15. At MMP-8, the “Relative rate MMP-8” value is reported as 1.6. In addition, the “Relative rate MMP-1” value at MMP-1 was 5.9. On MMP-7, the “Relative rate MMP-7” value is on record as 5.5. For the same substance, at MMP-3, the “Relative rate MMP-3” value was 45.
In the case of Gly-Pro-Gln-Gly#Trp-Ala-Gly-Gln, on MMP-9, the “Relative rate MMP-9” value is recorded as below 5.0. Besides, the “Relative rate MMP-2” value on MMP-2 was below 5.0. The “Relative rate MMP-8” value on MMP-8 is recorded as 49. Further, at MMP-1, the “Relative rate MMP-1” value is below 0.5. At MMP-7, the “Relative rate MMP-7” value was below 5.0. The “Relative rate MMP-3” value at MMP-3 is on record as 120.
For Gly-Pro-Gln-Gly#Tyr-Ala-Gly-Gln, the “Relative rate MMP-9” value at MMP-9 is recorded as 96. The “Relative rate MMP-2” value on MMP-2 is recorded as 50. Besides, the “Relative rate MMP-8” value on MMP-8 is reported as 390. Also, the “Relative rate MMP-1” value at MMP-1 is 50. Moreover, the “Relative rate MMP-7” value at MMP-7 was 21. Further, on MMP-3, the “Relative rate MMP-3” value is 150.
With Gly-Pro-Gln-Gly#Val-Ala-Gly-Gln, the “Relative rate MMP-9” value at MMP-9 is 25. For the same substance, on MMP-2, the “Relative rate MMP-2” value is on record as 30. Further, the “Relative rate MMP-8” value at MMP-8 was 9.0. Also, the “Relative rate MMP-1” value at MMP-1 is 9.1. The “Relative rate MMP-7” value on MMP-7 is on record as 17. Moreover, the “Relative rate MMP-3” value on MMP-3 is on record as 53.
Consider Gly-Pro-Gln-Leu#Ile-Ala-Gly-Gln, for which the “Relative rate MMP-9” value on MMP-9 is on record as 8.8. Besides, the “Relative rate MMP-2” value at MMP-2 was 21. In addition, the “Relative rate MMP-8” value at MMP-8 is 54. Moreover, the “Relative rate MMP-1” value at MMP-1 is recorded as 27. Also, the “Relative rate MMP-7” value on MMP-7 is on record as 49. Besides, the “Relative rate MMP-3” value on MMP-3 is 170.
Regarding Gly-Pro-Gln-Met#Ile-Ain-Gly-Gln, the “Relative rate MMP-9” value on MMP-9 is given as 12. On MMP-2, the “Relative rate MMP-2” value was 22. Moreover, on MMP-8, the “Relative rate MMP-8” value is listed as 140. Moreover, on MMP-1, the “Relative rate MMP-1” value is 200. Besides, the “Relative rate MMP-7” value on MMP-7 is 150. For the same substance, the “Relative rate MMP-3” value at MMP-3 is 110.
Turning to Gly-Pro-Gln-Phe#Ile-Ala-Gly-Gln, the “Relative rate MMP-9” value at MMP-9 was 26. The “Relative rate MMP-2” value at MMP-2 was 15. Also, the “Relative rate MMP-8” value at MMP-8 is recorded as 170. Also, the “Relative rate MMP-1” value on MMP-1 is 95. Also, the “Relative rate MMP-7” value at MMP-7 was 63. In addition, the “Relative rate MMP-3” value on MMP-3 is 68.
